Laboratory results: US6660742B2, “Compositions and methods of the use thereof achiral analogues of CC-1065 and the duocarmycins” (priority 2000, dated 2003)
“And” between values parts separate entries of the source, which are not always exact repeats. Equal values may be shown once. Read-outs that look alike come from different tables or passages of the source.

Experiments:
NCI-H226 = assay: NCI screen, NCI-H226 (Non-Small Cell Lung Cancer); type: cell-based, human
Protocol: (§1) The compounds of this invention were also tested against the panel of 60 human cancer cell lines at the National Cancer Institute, Bethesda, Md. […] The cytrotoxicity studies were conducted using a 48 hour exposure, and measuring the optical density of sulforhodamide B-derived color.

MDA-MB-435 = assay: NCI screen, MDA-MB-435 (Breast Cancer); type: cell-based, human
Protocol: as §1

MDA-MB-231/ATCC = settings: MDA-MB-231/ATCC
SR = assay: NCI screen, SR (Leukemia)
Protocol: as §1

K-562 = assay: NCI screen, K-562 (Leukemia)
Protocol: as §1

UACC-62 = assay: NCI screen, UACC-62 (Melanoma)
Protocol: as §1

CCRF-CEM = assay: NCI screen, CCRF-CEM (Leukemia)
Protocol: as §1

SF-295 = assay: NCI screen, SF-295 (CNS Cancer)
Protocol: as §1

SF-539 = assay: NCI screen, SF-539 (CNS Cancer)
Protocol: as §1

SNB-19 = assay: NCI screen, SNB-19 (CNS Cancer)
Protocol: as §1

SNB-75 = assay: NCI screen, SNB-75 (CNS Cancer)
Protocol: as §1

LOX IMVI = assay: NCI screen, LOX IMVI (Melanoma)
Protocol: The compounds of this invention were also tested against the panel of 60 human cancer cell lines at the National Cancer Institute, Bethesda, Md. (44). The cytrotoxicity studies were conducted using a 48 hour exposure, and measuring the optical density of sulforhodamide B-derived color.

SK-MEL-28 = assay: NCI screen, SK-MEL-28 (Melanoma)
Protocol: as §1

786-0 = assay: NCI screen, 786-0 (Renal Cancer)
Protocol: as §1

SN12C = assay: NCI screen, SN12C (Renal Cancer)
Protocol: as §1

TK-10 = assay: NCI screen, TK-10 (Renal Cancer)
Protocol: as §1

UO-31 = assay: NCI screen, UO-31 (Renal Cancer)
Protocol: as §1

MDA-N = assay: NCI screen, MDA-N (Breast Cancer)
Protocol: as §1

PC-3 = assay: NCI screen, PC-3 (Prostrate Cancer)
Protocol: as §1

OVCAR-3 = assay: NCI screen, OVCAR-3 (Ovarian Cancer)
Protocol: as §1

EKVX = assay: NCI screen, EKVX (Non-Small Cell Lung Cancer)
Protocol: as §1

O=C(Nc1cc(O)ccc1CCCl)c1cc2cc(NC(=O)c3cc4ccccc4o3)ccc2[nH]1 [Compound 1, 4-(2-Chloroethyl)-3-[5-(5-benzofuran-2-carboxamido)indole-2-carboxamido]phenol]
GI50 (NCI-H226): 4.09 µM | TGI (NCI-H226): 1.62E−05 Molar | Percent Growth (NCI-H226; Log10 Concentration −4.0): −90% | Percent Growth (NCI-H226; Log10 Concentration −8.0): 100% | GI50 (MDA-MB-435): 1.89 µM | TGI (MDA-MB-435): 3.75E−06 Molar | Percent Growth (MDA-MB-435; Log10 Concentration −4.0): −94% | Percent Growth (MDA-MB-435; Log10 Concentration −6.0): 96% | GI50 (HCT-15): 1.91 µM | Percent Growth (HCT-15): −91% | TGI (HCT-15): 4.89E−06 Molar | GI50 (MDA-MB-231/ATCC): 2.43 µM | TGI (MDA-MB-231/ATCC): 7.10E−06 Molar | Percent Growth (MDA-MB-231/ATCC; Log10 Concentration −4.0): −65% | Percent Growth (MDA-MB-231/ATCC; Log10 Concentration −5.0): −16% | Percent Growth (MDA-MB-231/ATCC; Log10 Concentration −6.0): 92% | Percent Growth (MDA-MB-231/ATCC; Log10 Concentration −7.0): 97% | Percent Growth (MDA-MB-231/ATCC; Log10 Concentration −8.0): 94% | GI50 (SR): 0.852 µM | TGI (SR): 8.12E−06 Molar | Percent Growth (SR; Log10 Concentration −4.0): −7% | GI50 (K-562): 2.88 µM | TGI (K-562): 9.59E−06 Molar | Percent Growth (K-562; Log10 Concentration −4.0): −5% | GI50 (UACC-62): 1.97 µM | TGI (UACC-62): 3.49E−06 Molar | Percent Growth (UACC-62; Log10 Concentration −4.0): −99% | Percent Growth (UACC-62; Log10 Concentration −7.0): 104% | Percent Growth (UACC-62; Log10 Concentration −8.0): 100% | GI50 (CCRF-CEM): 1.26 µM | TGI (CCRF-CEM): 5.28E−06 Molar | Percent Growth (CCRF-CEM; Log10 Concentration −4.0): −13% | Percent Growth (SF-295): 92% and 94% | GI50 (SF-295; SF-295): 2.32 µM | TGI (SF-295; SF-295): 6.46E−06 Molar | Percent Growth (SF-295; SF-295, Log10 Concentration −4.0): −96% | Percent Growth (SF-295; SF-295, Log10 Concentration −5.0): −21% | Percent Growth (SF-295; SF-295, Log10 Concentration −6.0): 91% | GI50 (SF-539): 1.92 µM | TGI (SF-539): 4.16E−06 Molar | Percent Growth (SF-539; Log10 Concentration −4.0): −100% | Percent Growth (SF-539; Log10 Concentration −8.0): 92% | GI50 (SNB-19): 3.53 µM | TGI (SNB-19): 1.38E−05 Molar | Percent Growth (SNB-19; Log10 Concentration −4.0): −75% | Percent Growth (SNB-75): 65% and 56% and 93% | GI50 (SNB-75; SNB-75): 18.6 µM | TGI (SNB-75; SNB-75): 3.32E−05 Molar | Percent Growth (SNB-75; SNB-75, Log10 Concentration −4.0): −96% | Percent Growth (LOX IMVI): 106% | GI50 (LOX IMVI; LOX IMVI): 2.43 µM | TGI (LOX IMVI; LOX IMVI): 6.93E−06 Molar | Percent Growth (LOX IMVI; LOX IMVI, Log10 Concentration −4.0): −70% | Percent Growth (LOX IMVI; LOX IMVI, Log10 Concentration −5.0): −17% | Percent Growth (LOX IMVI; LOX IMVI, Log10 Concentration −6.0): 92% | Percent Growth (LOX IMVI; LOX IMVI, Log10 Concentration −7.0): 101% | GI50 (SK-MEL-28): 2.4 µM | TGI (SK-MEL-28): 6.10E−06 Molar | Percent Growth (SK-MEL-28; Log10 Concentration −4.0): −98% | Percent Growth (SK-MEL-28; Log10 Concentration −6.0): 97% | Percent Growth (SK-MEL-28; Log10 Concentration −8.0): 103% | GI50 (786-0): 2.62 µM | TGI (786-0): 1.07E−05 Molar | Percent Growth (786-0; Log10 Concentration −4.0): −50% | Percent Growth (786-0; Log10 Concentration −5.0): 2% | Percent Growth (786-0; Log10 Concentration −6.0): 85% | Percent Growth (786-0; Log10 Concentration −7.0): 101% | Percent Growth (786-0; Log10 Concentration −8.0): 98% | GI50 (SN12C): 3.1 µM | TGI (SN12C): 9.41E−06 Molar | Percent Growth (SN12C; Log10 Concentration −4.0): −77% | Percent Growth (SN12C; Log10 Concentration −5.0): −3% | Percent Growth (SN12C; Log10 Concentration −7.0): 102% | Percent Growth (TK-10): −31% | GI50 (TK-10; TK-10): 2.45 µM | TGI (TK-10; TK-10): 5.85E−06 Molar | Percent Growth (TK-10; TK-10, Log10 Concentration −4.0): −95% | Percent Growth (TK-10; TK-10, Log10 Concentration −6.0): 101% | Percent Growth (TK-10; TK-10, Log10 Concentration −7.0): 98% | Percent Growth (TK-10; TK-10, Log10 Concentration −8.0): 104% | Percent Growth (UO-31): 123% | GI50 (UO-31; UO-31): 3 µM | TGI (UO-31; UO-31): 6.38E−06 Molar | Percent Growth (UO-31; UO-31, Log10 Concentration −4.0): −97% | Percent Growth (UO-31; UO-31, Log10 Concentration −5.0): −30% | Percent Growth (UO-31; UO-31, Log10 Concentration −7.0): 102% | Percent Growth (UO-31; UO-31, Log10 Concentration −8.0): 105% | Percent Growth (MDA-N): −35% | GI50 (MDA-N; MDA-N): 2.28 µM | TGI (MDA-N; MDA-N): 5.47E−06 Molar | Percent Growth (MDA-N; MDA-N, Log10 Concentration −4.0): −87% | Percent Growth (MDA-N; MDA-N, Log10 Concentration −6.0): 97% | Percent Growth (MDA-N; MDA-N, Log10 Concentration −7.0): 103% | Percent Growth (MDA-N; MDA-N, Log10 Concentration −8.0): 100% | GI50 (PC-3): 0.969 µM | TGI (PC-3): 3.99E−06 Molar | Percent Growth (PC-3; Log10 Concentration −4.0): −99% | Percent Growth (PC-3; Log10 Concentration −7.0): 98% | Percent Growth (PC-3; Log10 Concentration −8.0): 96% | GI50 (OVCAR-3): 2.13 µM | TGI (OVCAR-3): 4.69E−06 Molar | Percent Growth (OVCAR-3; Log10 Concentration −4.0): −99% | Percent Growth (OVCAR-3; Log10 Concentration −7.0): 102% | Percent Growth (OVCAR-3; Log10 Concentration −8.0): 94% | GI50 (EKVX): 1.78 µM | TGI (EKVX): 4.41E−06 Molar | Percent Growth (EKVX; Log10 Concentration −4.0): −80% | Percent Growth (EKVX; Log10 Concentration −7.0): 96%
